Laboratory results published in patent US10442775B2, “Preparation method for eutectic hydrate crystal form II of AHU-377 and diovan trisodium salt” (CRYSTAL PHARMATECH CO., LTD., priority 2015, dated 2019).

Test: Crystal form stability on storage (no transformation to other forms)
Format: physicochemical
Conditions: 40° C./75% RH; samples packaged in inner double-layered LDPE bags and an outer aluminum foil composite film bag

trisodium AHU-377 and Valsartan co-crystal hydrate Form II
Crystalline form stability (transformation to other forms): will not transform to other forms
